Experiment [1] has as its target T1, A/M2 V27A mutant channel (Influenza A virus, UniProt P0DOF5, V27A). The note with it: cited from earlier work.
The test system of experiment [2] is A/M2 S31N mutant channel. To be noted: cited from earlier work.
Experiment [3] deals with T1, A/M2 V27A mutant channel. In kind it is cell-based.
Experiment [4] relates to A/WSN/33 virus (H1N1 subtype), N31S/V27A M2. It is filed as cell-based, influenza A virus.

Entries after “also recorded” stand apart in the source; their conditions may differ. Structures can show the parent of a compound that is named as a salt.

Results on 6 compounds are retold here after article PMC5972026 (Journal of medicinal chemistry, 2017).

With `NC12CC3CC(CC(C3)C1)C2` [Amantadine, 1-aminoadamantane], the “Activity against the V27A mutant” value in experiment [1] was “totally inactive”. For the same compound, in experiment [2], the IC50 (in general, the point on the concentration scale where inhibition reaches its midpoint) was 200 µM. In experiment [3], the “Inhibition by 100 μM for 2 min (%)” value is reported as 8.9 ± 1.0%.
For the compound `C1CC(C23CC4CC(CC(C4)C2)C3)CCN1` [Compound 2, 4-(1-adamantyl)piperidine hydrochloride], in experiment [4], the “Antiviral activity in 46-h PRA” value is recorded as “weak activity; also recorded: minimal antiviral activity”. For the same compound, the “Binding behaviour” value in experiment [3] was “fast and weak”.
Turning to `C1CC(C2C3CC4CC(C3)CC2C4)CCN1` (stereo not drawn) [Compound 3, 4-(Adamantan-2-yl)piperidine hydrochloride], the “Antiviral activity in 46-h PRA” value in experiment [4] is “inactive”.
As for `N=C(N)N1CCC(C23CC4CC(CC(C4)C2)C3)CC1` [Compound 7, N-amidyl-4-(1-adamantyl)piperidine hydrochloride], the “Antiviral activity in 46-h PRA” value in experiment [4] was “inactive”. The “Binding behaviour” value in experiment [3] is “fast and weak binder”.
`C1CCC(C23CC4CC(CC(C4)C2)C3)NC1` (stereo not drawn) [Compound 8, 2-(1-adamantyl)piperidine hydrochloride]: in experiment [4], the “Antiviral activity in 46-h PRA” value is “inactive”. For the same compound, in experiment [3], the “Binding behaviour” value is reported as “no remarkable binding at all” and the “Time after which inhibition is at steady-state” value is not above 1 min.
In the case of `N=C(N)N1CCC(C=C2C3CC4CC(C3)CC2C4)CC1` [Compound 19, 4-[(adamantan-2-ylidene)methyl]piperidine-1-carboximidamide hydrochloride], the “Antiviral activity in 46-h PRA” value in experiment [4] was “inactive”.
